SMILES strings stand for the structures.

For assay [1], the target named is CLC-ec1 (Escherichia coli, UniProt P37019, E148A). Kind of assay: biochemical.
In assay [2] the target is CLC-ec1 (Escherichia coli, UniProt P37019). In words: biochemical.
Sequence of CLC-ec1 (Escherichia coli, UniProt P37019) (P37019 whole entry): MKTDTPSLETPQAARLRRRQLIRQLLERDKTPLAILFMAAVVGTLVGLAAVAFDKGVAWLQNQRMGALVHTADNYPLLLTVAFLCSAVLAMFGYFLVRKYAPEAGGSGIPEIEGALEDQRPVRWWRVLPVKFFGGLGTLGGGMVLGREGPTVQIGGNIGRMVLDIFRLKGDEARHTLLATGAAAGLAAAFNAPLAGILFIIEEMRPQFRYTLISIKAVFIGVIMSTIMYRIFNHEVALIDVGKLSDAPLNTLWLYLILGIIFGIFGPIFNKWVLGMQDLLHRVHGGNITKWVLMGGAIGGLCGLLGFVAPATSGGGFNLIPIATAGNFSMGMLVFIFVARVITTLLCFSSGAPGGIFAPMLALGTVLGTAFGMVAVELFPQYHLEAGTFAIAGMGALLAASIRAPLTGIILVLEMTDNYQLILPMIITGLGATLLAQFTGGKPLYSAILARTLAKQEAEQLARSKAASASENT

Sequence of CLC-ec1 (Escherichia coli, UniProt P37019, E148A) (P37019 whole entry E148A): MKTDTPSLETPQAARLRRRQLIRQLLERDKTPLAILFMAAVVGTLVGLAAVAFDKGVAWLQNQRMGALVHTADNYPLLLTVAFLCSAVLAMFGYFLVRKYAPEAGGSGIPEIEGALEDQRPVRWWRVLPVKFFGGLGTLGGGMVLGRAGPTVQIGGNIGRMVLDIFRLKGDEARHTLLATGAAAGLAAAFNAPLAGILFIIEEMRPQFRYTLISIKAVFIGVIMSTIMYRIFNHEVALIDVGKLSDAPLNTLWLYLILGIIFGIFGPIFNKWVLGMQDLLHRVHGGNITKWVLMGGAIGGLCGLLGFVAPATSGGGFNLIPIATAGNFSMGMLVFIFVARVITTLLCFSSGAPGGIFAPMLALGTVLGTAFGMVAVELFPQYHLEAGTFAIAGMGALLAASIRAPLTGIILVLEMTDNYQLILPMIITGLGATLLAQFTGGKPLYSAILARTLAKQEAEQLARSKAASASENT

As usually defined, the Kd is a measure of binding affinity in units of concentration. A higher Kd goes with lower affinity. In the case of `F` [F^−], the Kd on CLC-ec1 [1] stood at 180 µM; on CLC-ec1 [2] it was 1000 µM.
In turn, `Cl` [Cl^−] displayed a Kd at CLC-ec1 [2] of 600 µM.

Values taken from publication PMC3805709 (Nature chemical biology, 2013).
